Reference: patent EP4678638A1, “NEW E3 UBIQUITIN LIGASE LIGAND, PROTEIN DEGRADATION AGENT AND USE THEREOF” (priority 2023, dated 2024)
Read-outs that look alike come from different tables or passages of the source.

Tests used:
MV-4-11 = assay: CCK-8 proliferation, MV-4-11; format: cell-based, Human; conditions: Homo sapiens, MV4-11; Table B10, compounds designed based on the IRAK4 inhibitors; MV-4-11 cells; read-out: Inhibitory activity (IC50, nM) on tumor cell proliferation, MV-4-11
Protocol: The tumor cells used herein were cultured in a cell culture medium listed in table A1 at 37°C in an incubator with 5% CO2. Prior to experimentation, all cell lines used were correctly identified by STR profiling, and tested negative for mycoplasma contamination using a mycoplasma detection kit through routine screenings. Table A1. Tumor cells and cell culture medium used in the present disclosure
IC50 values of the compounds of the present disclosure (including the compounds in Table 1, and compounds of examples) were measured using the Meilun Cell Counting Kit-8 kit from Dalian Meilun Biotech Co., Ltd. Assay details are as follows: tumor cells were seeded in a 96-well plate at a density listed in Table A2. After 24h, 100 µL of the inoculated cells were treated with 0.5µL of the compounds of the present disclosure (including the compounds in Tables 1 and 2, and compounds of examples) at 10 different successively decreasing concentrations (starting at the highest concentration of 10µM; 5-fold serial dilutions). After the cells were treated with the compounds of the present disclosure for a period of time, the cell viability detection reagent was added to the culture medium for cell viability assessment according to the instructions provided with the CCK-8 kit. […] The growth inhibition of the compounds of the present disclosure on cells was plotted by Prism Graphpad software, and the IC50 values of the compounds of the present disclosure were calculated therefrom. […] Seeding protocol and treatment time for tumor cells

IKZF1 = biological target: T1, IKZF1 (Homo sapiens, UniProt Q13422+Q96SW2); assay: Western blot degradation of IKZF1 (hPBMC); format: cell-based; conditions: Table D16
T1 construct: evaluate the effects of the compounds of the present disclosure on the expression of target proteins in cells; endogenous in cells; host or cells: hPBMC
Outline: (§1)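 Degradation is assessed by immunoblotting lysates of treated cells. Target bands are quantified by grayscale and normalised to an internal control, so degradation rate equals 100% minus % remaining.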

IKZF2 = biological target: T2, IKZF2 (Homo sapiens, UniProt Q96SW2+Q9UKS7); assay: Western blot degradation of IKZF2 (hPBMC); format: cell-based; conditions: Table D16
T2 construct: evaluate the effects of the compounds of the present disclosure on the expression of target proteins in cells; endogenous in cells; host or cells: hPBMC
T2 sequence (Q9UKS7 whole entry): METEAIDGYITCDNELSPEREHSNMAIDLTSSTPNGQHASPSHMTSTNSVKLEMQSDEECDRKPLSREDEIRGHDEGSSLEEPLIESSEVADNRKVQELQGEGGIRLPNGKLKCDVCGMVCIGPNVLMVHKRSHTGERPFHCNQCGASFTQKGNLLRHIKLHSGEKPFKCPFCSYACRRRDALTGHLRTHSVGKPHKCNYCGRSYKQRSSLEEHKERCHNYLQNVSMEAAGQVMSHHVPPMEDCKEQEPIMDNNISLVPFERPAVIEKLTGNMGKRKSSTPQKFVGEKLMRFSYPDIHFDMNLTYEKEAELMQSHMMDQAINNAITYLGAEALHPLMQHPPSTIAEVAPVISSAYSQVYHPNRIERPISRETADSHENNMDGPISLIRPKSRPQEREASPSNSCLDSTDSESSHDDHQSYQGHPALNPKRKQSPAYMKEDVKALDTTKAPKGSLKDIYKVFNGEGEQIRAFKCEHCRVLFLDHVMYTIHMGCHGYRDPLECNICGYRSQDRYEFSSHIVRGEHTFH
T2 sequence (Q96SW2 whole entry): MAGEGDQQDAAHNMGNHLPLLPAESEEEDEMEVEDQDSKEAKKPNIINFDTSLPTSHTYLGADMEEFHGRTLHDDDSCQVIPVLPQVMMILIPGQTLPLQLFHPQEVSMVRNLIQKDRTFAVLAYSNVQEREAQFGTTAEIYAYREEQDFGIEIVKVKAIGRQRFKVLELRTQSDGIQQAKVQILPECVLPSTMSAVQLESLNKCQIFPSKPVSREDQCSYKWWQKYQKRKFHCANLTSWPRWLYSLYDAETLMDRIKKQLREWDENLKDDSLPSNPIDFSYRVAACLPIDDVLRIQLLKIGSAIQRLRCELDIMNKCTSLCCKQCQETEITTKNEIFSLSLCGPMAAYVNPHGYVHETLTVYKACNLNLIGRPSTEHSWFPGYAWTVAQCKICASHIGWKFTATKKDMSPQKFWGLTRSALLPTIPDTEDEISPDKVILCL
T2 sequence (Q16531 whole entry partner): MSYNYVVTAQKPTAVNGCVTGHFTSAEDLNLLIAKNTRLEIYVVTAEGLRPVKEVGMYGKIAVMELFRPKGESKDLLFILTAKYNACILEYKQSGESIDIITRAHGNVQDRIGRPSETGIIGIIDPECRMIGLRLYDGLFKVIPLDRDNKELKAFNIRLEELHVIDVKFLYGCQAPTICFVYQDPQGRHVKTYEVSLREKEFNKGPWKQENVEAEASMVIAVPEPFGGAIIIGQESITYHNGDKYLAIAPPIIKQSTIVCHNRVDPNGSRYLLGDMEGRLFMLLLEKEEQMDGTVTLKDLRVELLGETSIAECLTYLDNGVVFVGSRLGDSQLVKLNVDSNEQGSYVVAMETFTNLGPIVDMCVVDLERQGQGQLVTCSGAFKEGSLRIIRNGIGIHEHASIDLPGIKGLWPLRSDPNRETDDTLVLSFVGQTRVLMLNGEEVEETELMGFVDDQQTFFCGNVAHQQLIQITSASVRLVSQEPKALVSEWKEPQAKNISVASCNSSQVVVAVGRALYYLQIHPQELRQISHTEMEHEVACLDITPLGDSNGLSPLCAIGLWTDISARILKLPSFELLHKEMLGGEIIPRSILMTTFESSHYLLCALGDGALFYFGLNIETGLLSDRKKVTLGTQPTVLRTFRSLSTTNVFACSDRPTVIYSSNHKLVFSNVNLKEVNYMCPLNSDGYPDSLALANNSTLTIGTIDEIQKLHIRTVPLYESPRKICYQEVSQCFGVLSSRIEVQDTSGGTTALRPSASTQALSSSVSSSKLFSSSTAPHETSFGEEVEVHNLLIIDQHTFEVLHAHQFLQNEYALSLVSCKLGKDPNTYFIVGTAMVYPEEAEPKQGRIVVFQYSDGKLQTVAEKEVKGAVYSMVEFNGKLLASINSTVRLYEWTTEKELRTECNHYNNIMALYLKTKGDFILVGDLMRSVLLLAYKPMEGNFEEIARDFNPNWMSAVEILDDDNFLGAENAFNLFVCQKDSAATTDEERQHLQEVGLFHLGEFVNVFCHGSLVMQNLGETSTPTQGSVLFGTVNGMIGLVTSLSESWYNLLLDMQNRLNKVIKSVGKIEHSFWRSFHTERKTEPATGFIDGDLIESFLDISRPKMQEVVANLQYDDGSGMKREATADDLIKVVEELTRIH
Outline: as §1

MCF7 = assay: CCK-8 proliferation, MCF7 (MCF-7); format: cell-based; conditions: Homo sapiens, MCF7; CCK-8; read-out: Inhibitory activity (IC50) on tumor cell proliferation, MCF-7
Outline: (§2)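 CCK-8 viability readout; IC50 from growth-inhibition curve fitting. Cells plated, dosed 24h later with a 10-point series, top 10µM, 5-fold steps. Culture at 37°C, 5% CO2.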

IKZF3 = biological target: T3, IKZF3 (Homo sapiens, UniProt Q96SW2+Q9UKT9); assay: Western blot degradation of IKZF3 (hPBMC); format: cell-based; conditions: Table D16
T3 construct: evaluate the effects of the compounds of the present disclosure on the expression of target proteins in cells; endogenous in cells; host or cells: hPBMC
T3 sequence (Q9UKT9 whole entry): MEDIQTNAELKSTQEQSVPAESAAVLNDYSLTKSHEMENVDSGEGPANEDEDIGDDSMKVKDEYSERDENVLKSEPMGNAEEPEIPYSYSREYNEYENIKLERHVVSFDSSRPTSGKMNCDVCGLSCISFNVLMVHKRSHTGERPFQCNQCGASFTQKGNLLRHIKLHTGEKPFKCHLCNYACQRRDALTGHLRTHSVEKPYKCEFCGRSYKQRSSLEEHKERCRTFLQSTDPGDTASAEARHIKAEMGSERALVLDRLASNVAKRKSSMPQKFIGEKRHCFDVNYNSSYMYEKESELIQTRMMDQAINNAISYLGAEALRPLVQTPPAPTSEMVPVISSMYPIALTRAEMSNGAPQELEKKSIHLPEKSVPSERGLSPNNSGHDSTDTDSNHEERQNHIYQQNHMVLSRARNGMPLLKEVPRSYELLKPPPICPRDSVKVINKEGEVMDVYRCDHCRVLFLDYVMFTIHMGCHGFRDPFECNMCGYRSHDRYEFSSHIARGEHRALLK
T3 sequence (Q96SW2 whole entry): as the sequence (Q96SW2 whole entry) above
T3 sequence (Q16531 whole entry partner): as the sequence (Q16531 whole entry partner) above
Outline: as §1

WEE1 = biological target: T4, WEE1 (Homo sapiens, UniProt P30291+Q96SW2); assay: Western blot degradation of WEE1 (hPBMC); format: cell-based; conditions: Table D16
T4 construct: evaluate the effects of the compounds of the present disclosure on the expression of target proteins in cells; endogenous in cells; host or cells: hPBMC
T4 sequence (P30291 whole entry): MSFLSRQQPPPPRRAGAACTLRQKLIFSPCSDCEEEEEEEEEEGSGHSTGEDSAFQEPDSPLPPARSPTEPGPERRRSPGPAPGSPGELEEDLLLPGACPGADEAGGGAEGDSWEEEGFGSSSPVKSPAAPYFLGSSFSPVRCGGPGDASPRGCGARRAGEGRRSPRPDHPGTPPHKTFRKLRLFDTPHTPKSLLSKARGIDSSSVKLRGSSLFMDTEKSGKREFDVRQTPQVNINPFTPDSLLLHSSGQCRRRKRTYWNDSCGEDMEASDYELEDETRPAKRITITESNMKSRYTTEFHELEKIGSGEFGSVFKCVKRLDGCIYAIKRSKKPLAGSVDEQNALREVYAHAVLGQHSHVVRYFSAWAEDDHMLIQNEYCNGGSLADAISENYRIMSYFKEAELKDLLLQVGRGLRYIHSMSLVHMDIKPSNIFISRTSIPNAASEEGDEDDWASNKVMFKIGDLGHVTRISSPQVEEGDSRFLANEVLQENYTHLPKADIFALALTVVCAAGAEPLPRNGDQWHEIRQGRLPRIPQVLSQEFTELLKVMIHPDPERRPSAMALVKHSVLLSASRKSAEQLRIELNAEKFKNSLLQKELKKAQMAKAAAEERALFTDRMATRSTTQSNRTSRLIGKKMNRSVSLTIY
T4 sequence (Q96SW2 whole entry): as the sequence (Q96SW2 whole entry) above
T4 sequence (Q16531 whole entry partner): as the sequence (Q16531 whole entry partner) above
Outline: as §1

GSPT1 = biological target: T5, GSPT1 (Homo sapiens, UniProt P15170+Q96SW2); assay: Western blot degradation of GSPT1 (hPBMC); format: cell-based; conditions: Table D16
T5 construct: evaluate the effects of the compounds of the present disclosure on the expression of target proteins in cells; endogenous in cells; host or cells: hPBMC
T5 sequence (P15170 whole entry): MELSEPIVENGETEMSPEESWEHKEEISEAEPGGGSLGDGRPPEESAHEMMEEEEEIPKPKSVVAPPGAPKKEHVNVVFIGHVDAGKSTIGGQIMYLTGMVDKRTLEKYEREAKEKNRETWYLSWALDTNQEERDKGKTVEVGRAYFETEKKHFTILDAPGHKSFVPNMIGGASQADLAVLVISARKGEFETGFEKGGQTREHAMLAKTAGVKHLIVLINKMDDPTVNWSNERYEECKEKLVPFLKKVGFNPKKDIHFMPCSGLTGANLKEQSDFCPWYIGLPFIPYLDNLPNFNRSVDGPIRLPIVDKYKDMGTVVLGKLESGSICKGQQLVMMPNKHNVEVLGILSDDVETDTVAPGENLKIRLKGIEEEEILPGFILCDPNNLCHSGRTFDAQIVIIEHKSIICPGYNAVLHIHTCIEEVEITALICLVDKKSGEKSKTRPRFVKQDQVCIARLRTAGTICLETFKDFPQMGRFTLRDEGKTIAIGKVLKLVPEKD
T5 sequence (Q96SW2 whole entry): as the sequence (Q96SW2 whole entry) above
T5 sequence (Q16531 whole entry partner): as the sequence (Q16531 whole entry partner) above
Outline: as §1

MM.1S = assay: CCK-8 proliferation, MM.1S; format: cell-based; conditions: Homo sapiens, MM1.S, read-out: Inhibitory activity (IC50) on tumor cell proliferation, MM1S
Outline: as §2

CK1a = biological target: T6, CK1a (Homo sapiens, UniProt P48729+Q96SW2); assay: Western blot degradation of CK1a (hPBMC); format: cell-based; conditions: Table D16
T6 construct: evaluate the effects of the compounds of the present disclosure on the expression of target proteins in cells; endogenous in cells; host or cells: hPBMC
T6 sequence (P48729 whole entry): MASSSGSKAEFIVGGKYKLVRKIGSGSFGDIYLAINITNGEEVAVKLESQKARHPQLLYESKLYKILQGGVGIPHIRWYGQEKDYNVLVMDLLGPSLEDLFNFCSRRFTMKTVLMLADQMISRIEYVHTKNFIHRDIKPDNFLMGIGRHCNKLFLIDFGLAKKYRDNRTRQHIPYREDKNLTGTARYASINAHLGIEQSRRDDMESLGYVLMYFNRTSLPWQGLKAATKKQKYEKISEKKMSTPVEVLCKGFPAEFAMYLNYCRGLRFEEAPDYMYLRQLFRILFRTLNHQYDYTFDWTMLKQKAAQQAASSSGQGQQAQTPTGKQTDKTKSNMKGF
T6 sequence (Q96SW2 whole entry): as the sequence (Q96SW2 whole entry) above
T6 sequence (Q16531 whole entry partner): as the sequence (Q16531 whole entry partner) above
Outline: as §1

| SMILES | IC50 (MV-4-11) | Degradation of substrate protein IKZF1 (substrate protein remaining %) (IKZF1) | Degradation of substrate protein IKZF2 (substrate protein remaining %) (IKZF2) | IC50 (MCF7) | Degradation of substrate protein IKZF3 (substrate protein remaining %) (IKZF3) | Degradation of substrate protein WEE1 (substrate protein remaining %) (WEE1) | Degradation of substrate protein GSPT1 (substrate protein remaining %) (GSPT1) | IC50 (MM.1S; CCK-8, 72 hours) | Degradation of substrate protein CKla (substrate protein remaining %) (CK1a) | IC50 (MM.1S; 72 h) |
| --- | --- | --- | --- | --- | --- | --- | --- | --- | --- | --- |
| O=C1CCN(c2ccc(CN3CCC(n4cc(NC(=O)c5cnn6ccc(N7CCOCC7)nc56)c(C(F)F)n4)CC3)cc2F)C(=O)N1 [GT-03814, N-(3-(difluoromethyl)-1-(1-(4-(2,4-dioxotetrahydropyrimidin-1(2H)-yl)-3-fluorobenzyl)piperidin-4-yl)-1H-pyrazol-4-yl)-5-morpholinopyrazolo[1,5-a]pyrimidine-3-carboxamide] | 100 to 500 nM | – | – | – | – | – | – | – | – | – |
| Cc1cc(-c2nc(C(=O)Nc3cc4oc(N5CCN(Cc6ccc(C7CCC(=O)NC7=O)cc6)CC5)nc4nc3N3CC[C@@H](O)C3)co2)ccn1 (stereo partly drawn) [GT-03846, N-(2-(4-(4-(2,6-dioxopiperidin-3-yl)benzyl)piperazin-1-yl)-5-((R)-3-hydroxypyrrolidin-1-yl)oxazolo[4,5-b]pyridin-6-yl)-2-(2-methylpyridin-4-yl)oxazole-4-carboxamide] | 50 to 100 nM | – | – | – | – | – | – | – | – | – |
| Cc1cc(-c2nc(C(=O)Nc3cc4oc(N5CCN(Cc6ccc(C7CCC(=O)NC7=O)c(F)c6)CC5)nc4nc3N3CC[C@@H](O)C3)co2)ccn1 (stereo partly drawn) [GT-03847, N-(2-(4-(4-(2,6-dioxopiperidin-3-yl)-3-fluorobenzyl)piperazin-1-yl)-5-((R)-3-hydroxypyrrolidin-1-yl)oxazolo[4,5-b]pyridin-6-yl)-2-(2-methylpyridin-4-yl)oxazole-4-carboxamide] | 50 to 100 nM | – | – | – | – | – | – | – | – | – |
| O=C1CCN(c2cncc(CCl)c2)C(=O)N1 [GT-07047, 1-(5-(Chloromethyl)pyridin-3-yl)dihydropyrimidine-2,4(1H,3H)-dione] | – | A (A is defined as 0% ≤ substrate protein remaining % ≤ 80%) | A (A is defined as 0% ≤ substrate protein remaining % ≤ 80%) | 1 to 5 µM | A (A is defined as 0% ≤ substrate protein remaining % ≤ 80%) | B (B is defined as substrate protein remaining % > 80%) | B (B is defined as substrate protein remaining % > 80%) | 1 to 5 µM | A (A is defined as 0% ≤ substrate protein remaining % ≤ 80%) | – |
| O=C1CCC(c2cc(CO)ccn2)C(=O)N1 (stereo not shown) [GT-07050, 3-(4-(Hydroxymethyl)pyridin-2-yl)piperidine-2,6-dione] | – | A (A is defined as 0% ≤ substrate protein remaining % ≤ 80%) | B (B is defined as substrate protein remaining % > 80%) | 1 to 5 µM | A (A is defined as 0% ≤ substrate protein remaining % ≤ 80%) | B (B is defined as substrate protein remaining % > 80%) | A (A is defined as 0% ≤ substrate protein remaining % ≤ 80%) | 1 to 5 µM | A (A is defined as 0% ≤ substrate protein remaining % ≤ 80%) | – |
| CC(C)(C)[Si](C)(C)OCc1ccc(NC2CCC(=O)NC2=O)cn1 (stereo not shown) [GT-07445, 3-((6-(((tert-Butyldimethylsilyl)oxy)methyl)pyridin-3-yl)amino)piperidine-2,6-dione] | – | A (A is defined as 0% ≤ substrate protein remaining % ≤ 80%) | B (B is defined as substrate protein remaining % > 80%) | – | B (B is defined as substrate protein remaining % > 80%) | A (A is defined as 0% ≤ substrate protein remaining % ≤ 80%) | A (A is defined as 0% ≤ substrate protein remaining % ≤ 80%) | – | A (A is defined as 0% ≤ substrate protein remaining % ≤ 80%) | 0.5 to 1 µM |
| O=C1CCC(Nc2cncc(CO)c2)C(=O)N1 (stereo not shown) [GT-07448, 3-((5-(Hydroxymethyl)pyridin-3-yl)amino)piperidine-2,6-dione] | – | A (A is defined as 0% ≤ substrate protein remaining % ≤ 80%) | A (A is defined as 0% ≤ substrate protein remaining % ≤ 80%) | – | A (A is defined as 0% ≤ substrate protein remaining % ≤ 80%) | A (A is defined as 0% ≤ substrate protein remaining % ≤ 80%) | A (A is defined as 0% ≤ substrate protein remaining % ≤ 80%) | 1 to 5 µM | A (A is defined as 0% ≤ substrate protein remaining % ≤ 80%) | – |
| CC(C)(C)[Si](C)(C)OCc1ccc(NC2CCC(=O)NC2=O)nc1 (stereo not shown) [GT-07552, 3-((5-(((tert-Butyldimethylsilyl)oxy)methyl)pyridin-2-yl)amino)piperidine-2,6-dione] | – | B (B is defined as substrate protein remaining % > 80%) | A (A is defined as 0% ≤ substrate protein remaining % ≤ 80%) | – | B (B is defined as substrate protein remaining % > 80%) | B (B is defined as substrate protein remaining % > 80%) | B (B is defined as substrate protein remaining % > 80%) | – | B (B is defined as substrate protein remaining % > 80%) | 1 to 5 µM |
| O=Cc1ccnc(NC2CCC(=O)NC2=O)c1 (stereo not shown) [GT-07553, 2-((2,6-Dioxopiperidin-3-yl)amino)isonicotinaldehyde] | – | A (A is defined as 0% ≤ substrate protein remaining % ≤ 80%) | A (A is defined as 0% ≤ substrate protein remaining % ≤ 80%) | – | B (B is defined as substrate protein remaining % > 80%) | A (A is defined as 0% ≤ substrate protein remaining % ≤ 80%) | B (B is defined as substrate protein remaining % > 80%) | 1 to 5 µM | B (B is defined as substrate protein remaining % > 80%) | – |
| O=C1CCN(c2cnc(CCl)c(F)c2)C(=O)N1 [GT-07557, 1-(6-(Chloromethyl)-5-fluoropyridin-3-yl)dihydropyrimidine-2,4(1H,3H)-dione] | – | A (A is defined as 0% ≤ substrate protein remaining % ≤ 80%) | B (B is defined as substrate protein remaining % > 80%) | – | B (B is defined as substrate protein remaining % > 80%) | A (A is defined as 0% ≤ substrate protein remaining % ≤ 80%) | B (B is defined as substrate protein remaining % > 80%) | 1 to 5 µM | A (A is defined as 0% ≤ substrate protein remaining % ≤ 80%) | – |
| O=C1CCC(c2ccc(CO)nn2)C(=O)N1 (stereo not shown) [GT-07636, 3-(6-(Hydroxymethyl)pyridazin-3-yl)piperidine-2,6-dione] | – | A (A is defined as 0% ≤ substrate protein remaining % ≤ 80%) | A (A is defined as 0% ≤ substrate protein remaining % ≤ 80%) | – | A (A is defined as 0% ≤ substrate protein remaining % ≤ 80%) | B (B is defined as substrate protein remaining % > 80%) | A (A is defined as 0% ≤ substrate protein remaining % ≤ 80%) | 1 to 5 µM | B (B is defined as substrate protein remaining % > 80%) | – |
